Measurements: the supplement of paper PMC8671470
± gives the standard deviation of the averaged measurements.

What was measured:
Details in all cases: 72 h
KU-812 [1] = tested on: KU-812
In short: (§1)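 For the IC50, dose–response curves were fitted with a log-logistic model. The data came from fifteen myeloid leukaemia cell lines grown in RPMI 1640 at densities in the linear growth range and incubated in 384-well plates for 72 h at 37 °C under 5% CO2. Doses were five tenfold steps from 1 to 10,000 nM in duplicate, and luminescent ATP viability was normalised to vehicle and to a positive control at 10 µM before four-parameter fitting.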

NOMO-1 [2] = tested on: NOMO-1
In short: as §1

MV4-11 [3] = tested on: MV4-11
In short: as §1

K-562 [4] = tested on: K-562
In short: as §1

Mono-Mac-6 [5] = tested on: Mono-Mac-6
In short: as §1

HL-60 [6] = assay: cell viability (% survival relative to DMSO control); higher = less cytotoxic
In short: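 A rescreen of the full library used HL-60 cells in RPMI 1640 with 10% FBS on 384-well plates, run in duplicate at five tenfold concentrations (1–10,000 nM). Each screen included DMSO or 100 nM of one of three metabolic inhibitors and ran 72 h at 37 °C, 5% CO2. CellTiter-Glo viability was scaled between DMSO and 10 μM proteasome-inhibitor wells. Any area under the curve comes from four-parameter log-logistic fits with drc and PharmacoGx.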

KU-812 [7] = assay: cell viability (% survival relative to DMSO control, bortezomib = 0%); higher = less cytotoxic
In short: (§2)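 Fifteen myeloid leukaemia cell lines (10 AML, 5 CML) were seeded at a density titrated to the linear growth range into 384-well plates pre-printed with compounds at 1, 10, 100, 1000 or 10000 nM in duplicate. Plates were incubated for 72 h at 37 °C with 5% CO2. Viability was then read by CellTiter-Glo luminescence. Each value is percent survival averaged over the duplicates, with vehicle set to 100% and a 10 µM positive control to 0%.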

ML-2 = assay: as above
In short: as §2

NOMO-1 [8] = assay: as above
In short: as §2

KG-1 = assay: as above
In short: as §2

MOLM-13 = assay: as above
In short: as §2

HL-60 [9] = assay: as above
In short: as §2

MV4-11 [10] = assay: as above
In short: as §2

K-562 [11] = assay: as above
In short: as §2

KCL-22 = assay: as above
In short: as §2

BV-173 = assay: as above
In short: as §2

HEL = assay: as above
In short: as §2

THP-1 = assay: as above
In short: as §2

Mono-Mac-6 [12] = assay: as above
In short: as §2

LAMA-84 = assay: as above
In short: as §2

SHI-1 = assay: as above
In short: as §2

Cc1c(Cl)cccc1S(=O)(=O)Nc1nc(CC(=O)N2CCN(C)CC2)cs1 [BVT-2733]
Details | IC50 (cell viability) [µM]
K-562 [4] | > 10
KU-812 [1] | > 10
MV4-11 [3] | > 10
Mono-Mac-6 [5] | > 10
NOMO-1 [2] | > 10

cell viability [%], HL-60 [6]
Details | 0.001 µM | 0.01 µM | 0.1 µM | 1 µM | 10 µM
co-treatment: AZD3965 100 nM | 101.68 ± 0.086 | 102 ± 3.8 | 97.2 ± 1.6 | 98.13 ± 0.69 | 99.4 ± 1.7
co-treatment: DMSO vehicle | 101 ± 3 | 103.3 ± 0.6 | 98.9 ± 2 | 98.1 ± 1.3 | 98.8 ± 1.6
co-treatment: GSK2194069 100 nM | 103.6 ± 0.74 | 105 ± 6.3 | 97 ± 2.4 | 88.4 ± 7.7 | 99.66 ± 0.36
co-treatment: pictilisib 100 nM | 96.1 ± 7.3 | 99.8 ± 8.6 | 96.6 ± 2.2 | 87.2 ± 13 | 97.9 ± 1.1

cell viability [%]
Details | 1 nM | 10 nM | 100 nM | 1000 nM | 10000 nM
BV-173 | 102 | 103 | 94.8 | 93.3 | 88.5
HEL | 106 | 82.9 | 96.3 | 108 | 101
HL-60 [9] | 99.9 | 93.4 | 78.9 | 122 | 93.5
K-562 [11] | 98 | 83.5 | 87.1 | 104 | 102
KCL-22 | 114 | 83.6 | 97.9 | 98.2 | 98.1
KG-1 | 102 | 92.8 | 94.2 | 98.2 | 105
KU-812 [7] | 107 | 95.4 | 96.6 | 95.9 | 86.4
LAMA-84 | 101 | 93.4 | 96.9 | 105 | 99.9
ML-2 | 108 | 91.1 | 92.6 | 108 | 99.6
MOLM-13 | 99.7 | 89.1 | 97.8 | 110 | 96.4
MV4-11 [10] | 107 | 95.1 | 88.3 | 108 | 112
Mono-Mac-6 [12] | 107 | 88 | 107 | 114 | 99.6
NOMO-1 [8] | 105 | 97.6 | 99.1 | 99.1 | 95.4
SHI-1 | 110 | 101 | 105 | 111 | 104
THP-1 | 107 | 91 | 100 | 97 | 92.9
